Source: patent publication US20240279176A1, “SUBSTITUTED TRICYCLIC HETEROCYCLIC COMPOUNDS AS METALLO-BETA-LACTAMASE INHIBITORS” (priority 2021, published 2024)
Where two headings read alike, the source gives them in different places.

Experiments:
[1] = system: Klebsiella pneumoniae ATCC BAA-2146; experiment: Minimum inhibitory concentration (MIC), broth-microdilution (CLSI); assay type: cell-based; details: ATCCBAA2146, compound alone, K. pneumoniae ATCC BAA-2146, read-out: Intrinsic MIC
Excerpt: (§1) The strain included in the study was Klebsiella pneumoniae ATCC BAA-2146 (Himedia®, India) with presence of New Delhi metallo-β-lactamase (NDM-1) gene. The quality control reference strains Escherichia coli ATCC 25922 and Pseudomonas aeruginosa ATCC 27853 were procured from Himedia®, India.
MIC values were identified through broth-microdilution in sterilized 96-well polystyrene flat-bottom microtitre plates (Cole-Parmer®) according to the guideline of the Clinical and Laboratory Standards Institute (CLSI) (CLSI; Methods for dilution antimicrobial susceptibility tests for bacteria that grow aerobically; Clinical Laboratory Standards Institute, M07-A09, 2012). This method involves the use of BBL™ Cation-adjusted Mueller-Hinton II Broth (CA-MHB; BD) and the strain (Klebsiella pneumoniae ATCC BAA-2146) concentration was adjusted to 5×10^5 CFU/mL. After 16-18 h of incubation at various concentrations of Imipenem, Meropenem (Alfa Aesar), or test compounds at 37° C., MIC was defined as the lowest concentration of antibiotic or test compound with no visible growth.

[2] = system: Klebsiella pneumoniae ATCC BAA-2146; experiment: Checkerboard synergy assay in combination with Meropenem; assay type: cell-based; details: K. pneumoniae ATCC BAA-2146; for Fold reduction in meropenem MIC in the presence of compounds (μg/mL) 4: compound at 4 μg/mL; for Fold reduction in meropenem MIC in the presence of compounds (μg/mL) 8: compound at 8 μg/mL; for Fold reduction in meropenem MIC in the presence of compounds (μg/mL) 16: compound at 16 μg/mL; for Fold reduction in meropenem MIC in the presence of compounds (μg/mL) 32: compound at 32 μg/mL
Excerpt: as §1
(§2) The fold modulation activity of test compounds, in combination with Imipenem or Meropenem, was checked against Klebsiella pneumoniae ATCC BAA-2146 strain by the broth-microdilution checkerboard synergy assay. The plates contained 5×10^5 CFU/mL bacterial inocula and 2-fold serial dilutions of the antibiotics (128-2 μg/mL) as well as test compounds (32-4 μg/mL) in a total volume of 200 μL of CA-MHB. Dimethyl sulfoxide (DMSO, ≤2.5%) was included as vehicle control. Following 16-18 h of incubation at 37° C., the MICs of antibiotics as well as drug combinations were visually inspected.

IMP-1 = IMP-1 (Serratia marcescens, UniProt P52699); experiment: Enzyme activity: IC50 in fluorescence assay with cephalosporin substrate FC5; assay type: biochemical; details: 100 pM IMP-1, 10 μM FC5, 10 min pre-incubation
Description: (§3) The Class B beta-lactamases activities were measured in the presence of the test inhibitors in a fluorescence assay against an in-house synthesized fluorescent cephalosporin substrate FC5 (Berkel, et. al. J. Med. Chem. 2013, 56(17), 6945). The enzymes (NDM-1, IMP-1) and the substrate were diluted in 20 mM HEPES, pH 7.4, supplemented with 300 mM NaCl and 10 μM ZnSO4. In the assay, the final concentration of enzyme was 50 pM, and 100 pM for NDM-1, and IMP-1 respectively, and the final concentration of FC5 was 1.5 μM for NDM-1 and 10 μM for IMP-1. The test inhibitors/compounds were dissolved in dimethylsulfoxide (DMSO) and diluted in the assay with assay buffer (20 mM HEPES, pH 7.4, supplemented with 5% DMSO, 300 mM NaCl and 10 μM ZnSO4), resulting in a final concentration range of 0.008 μM to 25 μM. The assays were performed in 96-well microplate (flat bottom, black). The test inhibitors were incubated with the MBL enzyme for 10 min at room temperature, followed by addition the substrate and the fluorescence was recorded immediately (λex 380 nm, λem 460 nm) on a microplate reader. Using the initial velocity data plotted against the inhibitor concentration, the half-maximal inhibitory concentrations were calculated by an IC50 curve-fitting model in GraphPad Prism 9 software.

NDM-1 = NDM-1 (Klebsiella pneumoniae, UniProt C7C422); experiment: as above; assay type: biochemical; details: 50 pM NDM-1, 1.5 μM FC5, 10 min pre-incubation
Description: as §3

[3] = system: Klebsiella pneumoniae ATCC BAA-2146; experiment: Checkerboard synergy assay in combination with Imipenem; assay type: cell-based; details: K. pneumoniae ATCC BAA-2146; for Fold reduction in Imipenem MIC in the presence of compounds (μg/mL) 4: compound at 4 μg/mL; for Fold reduction in Imipenem MIC in the presence of compounds (μg/mL) 8: compound at 8 μg/mL; for Fold reduction in Imipenem MIC in the presence of compounds (μg/mL) 16: compound at 16 μg/mL; for Fold reduction in Imipenem MIC in the presence of compounds (μg/mL) 32: compound at 32 μg/mL
Excerpt: as §1, §2

Chain of NDM-1 (C7C422 29-270, looked up): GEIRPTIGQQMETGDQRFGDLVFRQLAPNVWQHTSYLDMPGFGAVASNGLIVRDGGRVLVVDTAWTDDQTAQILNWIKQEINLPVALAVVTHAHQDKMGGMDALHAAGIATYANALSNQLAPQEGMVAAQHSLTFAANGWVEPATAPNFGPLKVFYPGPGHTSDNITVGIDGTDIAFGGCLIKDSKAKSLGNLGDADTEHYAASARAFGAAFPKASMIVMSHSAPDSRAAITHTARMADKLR
Chain of IMP-1 (P52699 19-246, looked up, species assumed): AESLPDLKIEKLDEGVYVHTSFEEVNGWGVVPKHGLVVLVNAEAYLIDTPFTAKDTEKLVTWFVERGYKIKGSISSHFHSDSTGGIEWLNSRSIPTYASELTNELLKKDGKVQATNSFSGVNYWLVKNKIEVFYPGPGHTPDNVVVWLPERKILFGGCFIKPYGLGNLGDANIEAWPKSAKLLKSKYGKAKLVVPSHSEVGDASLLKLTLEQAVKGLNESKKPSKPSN

Row | SMILES | MIC ([1]; Imipenem series) | MIC ([1]; meropenem series) | Fold reduction in meropenem MIC in the presence of compounds (μg/mL) 4 [2] | Fold reduction in meropenem MIC in the presence of compounds (μg/mL) 8 [2] | Fold reduction in meropenem MIC in the presence of compounds (μg/mL) 16 [2] | Fold reduction in meropenem MIC in the presence of compounds (μg/mL) 32 [2] | IC50 (IMP-1) | IC50 (NDM-1) | Fold reduction in Imipenem MIC in the presence of compounds (μg/mL) 4 [3] | Fold reduction in Imipenem MIC in the presence of compounds (μg/mL) 8 [3] | Fold reduction in Imipenem MIC in the presence of compounds (μg/mL) 16 [3] | Fold reduction in Imipenem MIC in the presence of compounds (μg/mL) 32 [3]
1 | O=C(O)c1[nH]c2c(c1-c1ccncc1)CCc1ccccc1-2 [Example 51, 3-(pyridin-4-yl)-4,5-dihydro-1H-benzo[g]indole-2-carboxylic Acid] | > 128 µg/mL | > 128 µg/mL | 4 fold | 4 fold | 8 fold | 8 fold | 11.1 µM | 0.604 µM | 4 fold | 4 fold | 8 fold | 8 fold
2 | COc1ccc(Cl)cc1-c1c(C(=O)O)[nH]c2c1CCc1ccccc1-2 [Example 38, 3-(5-Chloro-2-methoxyphenyl)-4,5-dihydro-1H-benzo[g]indole-2-carboxylic Acid] | > 128 µg/mL | > 128 µg/mL | 4 fold | 4 fold | 4 fold | 8 fold | 0.026 µM | 0.026 µM | 4 fold | 4 fold | 8 fold | 8 fold
3 | CC(C)(C)c1ccc(-c2c(C(=O)O)[nH]c3c2CCc2ccccc2-3)cc1 [Example 39, 3-(4-(tert-Butyl)phenyl)-4,5-dihydro-1H-benzo[g]indole-2-carboxylic Acid] | > 64 µg/mL | > 64 µg/mL | 4 fold | 4 fold | 4 fold | 4 fold | 72.1 µM | 0.591 µM | 2 fold | 4 fold | 4 fold | 4 fold
4 | COc1ccccc1-c1c(C(=O)O)[nH]c2c1CCc1ccccc1-2 [Example 35, 3-(2-methoxyphenyl)-4,5-dihydro-1H-benzo[g]indole-2-carboxylic Acid] | > 128 µg/mL | > 128 µg/mL | 4 fold | 4 fold | 8 fold | 8 fold | 1.81 µM | 0.248 µM | 2 fold | 4 fold | 4 fold | 8 fold
5 | O=C(O)c1[nH]c2c(c1-c1cccc(F)c1F)CCc1ccccc1-2 [Example 47, 3-(2,3-difluorophenyl)-4,5-dihydro-1H-benzo[g]indole-2-carboxylic Acid] | > 128 µg/mL | > 128 µg/mL | 2 fold | 4 fold | 4 fold | 4 fold | 3.3 µM | 0.323 µM | 2 fold | 4 fold | 4 fold | 8 fold
6 | O=C(O)c1[nH]c2c(c1-c1ccc(Cl)cc1Cl)CCc1ccccc1-2 [Example 46, 3-(2,4-dichlorophenyl)-4,5-dihydro-1H-benzo[g]indole-2-carboxylic acid] | > 128 µg/mL | > 128 µg/mL | 4 fold | 4 fold | 8 fold | 16 fold | 10.4 µM | 0.306 µM | 4 fold | 4 fold | 8 fold | 16 fold
7 | O=C(O)c1[nH]c2c(c1-c1cccc(F)c1)CCc1ccccc1-2 [Example 42, 3-(3-Fluorophenyl)-4,5-dihydro-1H-benzo[g]indole-2-carboxylic Acid] | > 128 µg/mL | > 128 µg/mL | 4 fold | 4 fold | 4 fold | 8 fold | 1.15 µM | 0.079 µM | 4 fold | 4 fold | 8 fold | 8 fold
8 | COc1ccc(-c2c(C(=O)O)[nH]c3c2CCc2ccccc2-3)cc1 [Example 36, 3-(4-Methoxyphenyl)-4,5-dihydro-1H-benzo[g]indole-2-carboxylic Acid] | > 64 µg/mL | > 64 µg/mL | 2 fold | 2 fold | 4 fold | 4 fold | 18.3 µM | 2.65 µM | 2 fold | 2 fold | 2 fold | 4 fold
